Consider nine compounds from ChEMBL document CHEMBL5126561, “New pyrazole-tetrazole hybrid compounds as potent α-amylase and non-enzymatic glycation inhibitors” (Bioorg Med Chem Lett, 2022).

Each structure is given as a SMILES string. In brackets after ≈: the same amount, converted by molar mass.

The target of one data set is T1, Alpha amylase (Homo sapiens, UniProt P0DUB6).
T1 sequence (P0DUB6 whole entry): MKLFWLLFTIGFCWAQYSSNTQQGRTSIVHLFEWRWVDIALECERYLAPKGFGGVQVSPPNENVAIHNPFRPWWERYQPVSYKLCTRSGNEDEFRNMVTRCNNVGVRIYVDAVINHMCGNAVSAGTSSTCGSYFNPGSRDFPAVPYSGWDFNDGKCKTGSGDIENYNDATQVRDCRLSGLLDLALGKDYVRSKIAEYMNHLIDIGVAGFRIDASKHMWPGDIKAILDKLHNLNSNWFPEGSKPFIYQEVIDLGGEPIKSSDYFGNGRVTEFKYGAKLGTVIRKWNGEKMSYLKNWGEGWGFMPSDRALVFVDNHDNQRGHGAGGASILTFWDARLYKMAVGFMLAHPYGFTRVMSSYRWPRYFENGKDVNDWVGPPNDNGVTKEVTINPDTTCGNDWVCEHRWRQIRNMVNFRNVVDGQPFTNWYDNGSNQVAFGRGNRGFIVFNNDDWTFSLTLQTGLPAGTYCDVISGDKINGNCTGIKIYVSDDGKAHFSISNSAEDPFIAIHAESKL
The experiment in a line: Inhibition of alpha-amylase (unknown origin) assessed as reduction in conversion of starch to glucose preincubated for 10 mins followed by substrate addition and measured after 20 mins by DNSA reagent based spectrophotometric analysis.

The next data set deals with Hemoglobin HbA (Homo sapiens, UniProt P68871+P69905). The data set can be described thus: Inhibition of non-enzymatic glycation in hemoglobin (unknown origin) by spectrophotometric analysis. Format: protein-complex assay.
Sequence of Hemoglobin HbA (P69905 whole entry): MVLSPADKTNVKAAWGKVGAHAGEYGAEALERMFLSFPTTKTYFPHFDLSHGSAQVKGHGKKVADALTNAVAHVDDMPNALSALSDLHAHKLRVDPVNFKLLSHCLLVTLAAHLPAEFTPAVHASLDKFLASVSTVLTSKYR
Sequence of Hemoglobin HbA (P68871 whole entry): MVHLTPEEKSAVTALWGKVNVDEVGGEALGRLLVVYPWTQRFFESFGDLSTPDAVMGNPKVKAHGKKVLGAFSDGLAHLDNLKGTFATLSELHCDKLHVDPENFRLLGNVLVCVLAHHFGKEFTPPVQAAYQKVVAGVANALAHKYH
Data set [1] is described as follows: Lipophilicity, logP of compound. The class given is physicochemical. The following applies: octanol/water.
Data set [2] concerns the target Alpha amylase (Homo sapiens) (UniProt P0DUB6). The experiment in a line: Potency index, ratio of acarbose IC50 to test compound IC50 for inhibition of alpha-amylase (unknown origin) assessed as reduction in conversion of starch to glucose preincubated for 10 mins followed by substrate addition and measured after 20 mins by DNSA reagent based spectrophotometric analysis. The following applies: time 30.0 min.

Data set [3] has as its target Hemoglobin HbA (Homo sapiens) (UniProt P69905+P68871). The data set can be described thus: Potency index, ratio of gallic acid IC50 to test compound IC50 for inhibition of non-enzymatic glycation in hemoglobin (unknown origin) by spectrophotometric analysis. Format: protein-complex assay.

Sequence of Hemoglobin HbA (Homo sapiens) (P68871 2-147 partner limits assumed): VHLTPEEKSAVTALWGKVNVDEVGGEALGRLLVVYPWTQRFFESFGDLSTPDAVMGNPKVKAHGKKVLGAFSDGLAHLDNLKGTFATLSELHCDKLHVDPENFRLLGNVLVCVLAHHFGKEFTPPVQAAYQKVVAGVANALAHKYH
Sequence of Hemoglobin HbA (Homo sapiens) (P69905 2-142 limits assumed): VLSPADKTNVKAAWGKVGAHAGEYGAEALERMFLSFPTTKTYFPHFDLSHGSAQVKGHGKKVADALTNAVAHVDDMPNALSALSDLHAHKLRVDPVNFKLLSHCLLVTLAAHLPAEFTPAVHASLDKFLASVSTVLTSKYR

Consider `Cc1cc(Cn2nnc(Cc3ccccc3)n2)n[nH]1`, for which the values for the IC50 at Alpha amylase and against Hemoglobin HbA were 5.59 mg/mL (≈ 22 mM) and 1060 µM, respectively. In data set [1], the logP was 2.5.

Turning to `CCn1nc(Cn2nnnc2-c2ccccn2)cc1C`, the IC50 at Alpha amylase is 1.13 10^-4mg/ml; against Hemoglobin HbA, 223 µM. In addition, in data set [1], the logP came out at 1.34. For the same compound, the results for the Ratio IC50 in data set [2] and in data set [3] were 3010 and 2.8, respectively.

On to `CCn1nc(Cn2nnc(Cc3ccccc3)n2)cc1C`, for which the IC50 is 2.36 mg/mL (≈ 8.36 mM) on Alpha amylase and 1970 µM against Hemoglobin HbA. This compound also had a log partition coefficient (logP) in data set [1] of 2.88.

On to `Cc1cc(Cn2nnc(-c3ccccn3)n2)n[nH]1`, for which the IC50 at Alpha amylase is 0.95 mg/mL (≈ 3.94 mM); against Hemoglobin HbA it was 1950 µM. Also, the logP in data set [1] stood at 1.69.

The compound `O=C(O)c1cc(O)c(O)c(O)c1` [GALLIC ACID] gave an IC50 on Hemoglobin HbA of 999 µM.

On to `Cc1cc(Cn2nnnc2-c2ccccn2)n[nH]1`, for which the IC50 at Alpha amylase was 4.82 10^-3mg/ml; on Hemoglobin HbA it was 352 µM. This compound also returned a logP in data set [1] of 0.86. Besides, the Ratio IC50 in data set [2] stood at 70; in data set [3] it was 2.

For `CCn1nc(Cn2nnnc2Cc2ccccc2)cc1C`, the figures for the IC50 on Alpha amylase and on Hemoglobin HbA were 0.023 mg/mL (≈ 0.0815 mM) and 1200 µM, respectively. Besides, the logP in data set [1] is 2.1. The Ratio IC50 in data set [2] turned out to be 15.

Consider `Cc1cc(Cn2nnnc2Cc2ccccc2)n[nH]1`, for which the IC50 on Alpha amylase is 1.97 mg/mL (≈ 7.75 mM); on Hemoglobin HbA it was 1020 µM. In data set [1], this compound returned a logP of 1.62.

As to `CCn1nc(Cn2nnc(-c3ccccn3)n2)cc1C`, the IC50 on Alpha amylase was 0.54 mg/mL (≈ 2.01 mM); on Hemoglobin HbA, 2520 µM. In data set [1], this compound yielded a logP of 2.08.
